Measurements: patent US20250205268A1, “TREATMENT OF VIRUSES WITH ANTIVIRAL NUCLEOSIDES” (priority 2021, published 2025)
“Also recorded” adds a separate entry of the source. Read-outs that look alike come from different tables or passages of the source.

Assays:
SARS-CoV-2 [1] = type: in vivo; settings: subgroup hospitalized after randomization; vs placebo
SARS-CoV-2 [2] = type: in vivo
[3] = tested on: infectious SARS-CoV-2 virus; type: in vivo
SARS-CoV-2 RNA = type: in vivo; settings: for SARS-CoV-2 RNA titer, mean / SARS-CoV-2 RNA titer, mean change from baseline: interim
[4] = Part 2 interim analysis, MITT, 800 mg twice daily 5 days
[5] = Part 2 interim analysis, versus placebo
[6] = Part 2 interim, post-hoc sensitivity analysis, MITT
[7] = baseline RNA titer >10^6 copies/ml, Day 3
[8] = baseline RNA titer >10^6 copies/ml, Day 10
[9] = baseline RNA titer >10^6 copies/ml, Day 15
[10] = baseline RNA titer >10^6 copies/ml, Day 29
[11] = baseline RNA titer >10^6 copies/ml, EOT (Day 5)
[12] = baseline RNA titer ≤10^6 copies/ml, Day 3
[13] = baseline RNA titer ≤10^6 copies/ml, Day 10
[14] = baseline RNA titer ≤10^6 copies/ml, Day 15
[15] = baseline RNA titer ≤10^6 copies/ml, Day 29
[16] = baseline RNA titer ≤10^6 copies/ml, EOT (Day 5)

## CC(C)C(=O)OC[C@H]1O[C@@H](n2ccc(NO)nc2=O)[C@H](O)[C@@H]1O [Compound A, {(2R,3S,4R,5R)-3,4-dihydroxy-5-[4-(hydroxyimino)-2-oxo-3,4-dihydropyrimidin-1 (2H)-yl]oxolan-2-yl}methyl 2-methylpropanoate]
SARS-CoV-2 [1]
  RRR, conventional oxygen: 12.8%
  RRR, high-flow heated and humidified device: −4.7%
  RRR, invasive mechanical ventilation: 49.2%
  RRR, noninvasive mechanical ventilation: 65.1%
SARS-CoV-2 [2]; Part 2 interim analysis
  deaths through Day 29: No participants in the Compound A group died; also recorded: No deaths were reported
  relative reduction in the percentage of participants hospitalized or died through Day 29: ~50%
SARS-CoV-2 [2]; Part 2 interim analysis (28 of 385 vs 53 of 377), MITT
  treatment difference (Compound A minus placebo) in hospitalization or death at day 29: −6.8 percentage points
SARS-CoV-2 [2]; Part 2 interim analysis, MITT
  hazard ratio for hospitalization/death through Day 29: 0.51
  reduction in the risk of hospitalization/death through Day 29 (time-to-event analysis): ~50%
SARS-CoV-2 [2]; [4]
  participants hospitalized or died through Day 29: 7.3%
  reduction in the risk of hospitalization or death through Day 29 compared with placebo: 6.8 percentage point
SARS-CoV-2 [2]; Part 2 interim analysis, subgroup positive for SARS-CoV-2 antibodies at baseline
  participants hospitalized or died through Day 29: 2.9%
SARS-CoV-2 [2]; [5]
  progression of COVID-19 signs/symptoms: lower percentage of participants in the Compound A than the placebo group reported progression
  sustained improvement/resolution of self-reported COVID-19 signs/symptoms: higher percentage of participants in the Compound A group achieved earlier sustained improvement/resolution
SARS-CoV-2 [2]; [6]
  COVID-19-related hospitalizations and/or deaths through Day 29, n (%): 25 (6.5) n (%)
  Unadjusted difference vs placebo in COVID-19-related hospitalizations and/or deaths: −6.8
SARS-CoV-2 [2]; Part 2 interim, post-hoc sensitivity analysis, MITT, Miettinen & Nurminen
  Adjusted difference in rates % (95% CI) vs placebo in COVID-19-related hospitalizations and/or deaths: −6.8 (−11.1, −2.6) %
SARS-CoV-2 [2]; final
  Covid-19 signs and symptoms versus placebo: sustained abatement or resolution was more likely
  deaths reported through day 29: One
SARS-CoV-2 [2]; final all-randomized MITT
  29-day all-cause mortality: 0.1%
  difference vs placebo in hospitalization or death through day 29: −3.0 percentage points
  hazard ratio for hospitalization or death through day 29: 0.69
  rate of hospitalization or death through day 29 lower than placebo (time-to-event analysis): approximately 31%
SARS-CoV-2 [2]; final all-randomized MITT (48 of 709), 800 mg twice daily 5 days
  participants hospitalized or died through day 29: 6.8%
SARS-CoV-2 [2]; final, post hoc analysis
  risk of hospitalization or death through day 29 lower than placebo, adjusted for participant sex: 2.8 percentage points
SARS-CoV-2 [2]; final, prespecified supporting analysis
  difference vs placebo in Covid-19-related hospitalizations or deaths: −2.8 percentage points
SARS-CoV-2 [2]; final, prespecified supporting analysis (45 of 709)
  participants with Covid-19-related hospitalizations or deaths: 6.3%
SARS-CoV-2 [2]; final, through day 29
  risk of death lower than with placebo: 89%
400-mg group
  participants with serious adverse events resulting in hospitalization: 3.2%
800-mg group
  participants with serious adverse events resulting in hospitalization: 1.8%
800-mg group compared with the other groups
  incidence of treatment-associated adverse events: lowest
Compound A groups combined
  adverse events that led to discontinuation: 1.4%
All doses, similar to placebo
  adverse events: few, and mainly low-grade
Combined Compound A groups
  Grade 3 or higher adverse events: 5.0%
During the study
  hematology or clinical chemistry data: no dose-related trends
[3]; 200 mg twice daily 5 days, Day 1
  Percentage of participants positive for infectious SARS-CoV-2 virus: (50.0) %
[3]; 200 mg twice daily 5 days, Day 3
  Percentage of participants positive for infectious SARS-CoV-2 virus: (18.2) %
[3]; 200 mg twice daily 5 days, Day 5
  Percentage of participants positive for infectious SARS-CoV-2 virus: (4.5) %
[3]; 400 mg twice daily 5 days, Day 1
  Percentage of participants positive for infectious SARS-CoV-2 virus: (41.9) %
[3]; 400 mg twice daily 5 days, Day 3
  Percentage of participants positive for infectious SARS-CoV-2 virus: (11.6) %
[3]; 800 mg twice daily 5 days, Day 1
  Percentage of participants positive for infectious SARS-CoV-2 virus: (38.5) %
H1N1; administered every 12 hours, ferret model of influenza
  number of doses sufficient to demonstrate efficacy: Three
H1N1; ferrets
  dose demonstrating efficacy against H1N1: 7 mg/kg BID
SARS-CoV-2 RNA; Part 2 interim analysis
  reductions in viral load from baseline versus placebo: significantly greater reductions in viral load from baseline at Days 3 and 5 than placebo
SARS-CoV-2 RNA; final all-randomized analysis, days 3, 5 (end-of-treatment visit), and 10
  reductions from baseline in mean viral load versus placebo: greater reductions from baseline in mean viral load than placebo
SARS-CoV-2 RNA; MITT, Baseline
  SARS-CoV-2 RNA titer, mean: 6.85 log^10 copies/ml
SARS-CoV-2 RNA; MITT, Day 3
  SARS-CoV-2 RNA titer, mean: 5.82 log^10 copies/ml
  SARS-CoV-2 RNA titer, mean change from baseline: −1.04 log^10 copies/ml
SARS-CoV-2 RNA; MITT, Day 10
  SARS-CoV-2 RNA titer, mean: 3.70 log^10 copies/ml
  SARS-CoV-2 RNA titer, mean change from baseline: −3.18 log^10 copies/ml
SARS-CoV-2 RNA; MITT, Day 15
  SARS-CoV-2 RNA titer, mean: 3.20 log^10 copies/ml
  SARS-CoV-2 RNA titer, mean change from baseline: −3.69 log^10 copies/ml
SARS-CoV-2 RNA; MITT, Day 29
  SARS-CoV-2 RNA titer, mean: 2.90 log^10 copies/ml
  SARS-CoV-2 RNA titer, mean change from baseline: −4.08 log^10 copies/ml
SARS-CoV-2 RNA; MITT, EOT (Day 5)
  SARS-CoV-2 RNA titer, mean: 4.80 log^10 copies/ml
  SARS-CoV-2 RNA titer, mean change from baseline: −2.09 log^10 copies/ml
SARS-CoV-2 RNA; baseline RNA titer >10^6 copies/ml, Baseline
  SARS-CoV-2 RNA titer, mean: 7.71 log^10 copies/ml
SARS-CoV-2 RNA; [7]
  SARS-CoV-2 RNA titer, mean: 6.56 log^10 copies/ml
  SARS-CoV-2 RNA titer, mean change from baseline: −1.17 log^10 copies/ml
SARS-CoV-2 RNA; [8]
  SARS-CoV-2 RNA titer, mean: 3.94 log^10 copies/ml
  SARS-CoV-2 RNA titer, mean change from baseline: −3.79 log^10 copies/ml
SARS-CoV-2 RNA; [9]
  SARS-CoV-2 RNA titer, mean: 3.26 log^10 copies/ml
  SARS-CoV-2 RNA titer, mean change from baseline: −4.47 log^10 copies/ml
SARS-CoV-2 RNA; [10]
  SARS-CoV-2 RNA titer, mean: 2.93 log^10 copies/ml
  SARS-CoV-2 RNA titer, mean change from baseline: −4.87 log^10 copies/ml
SARS-CoV-2 RNA; [11]
  SARS-CoV-2 RNA titer, mean: 5.25 log^10 copies/ml
  SARS-CoV-2 RNA titer, mean change from baseline: −2.49 log^10 copies/ml
SARS-CoV-2 RNA; baseline RNA titer ≤10^6 copies/ml, Baseline
  SARS-CoV-2 RNA titer, mean: 4.58 log^10 copies/ml
SARS-CoV-2 RNA; [12]
  SARS-CoV-2 RNA titer, mean: 3.88 log^10 copies/ml
  SARS-CoV-2 RNA titer, mean change from baseline: −0.67 log^10 copies/ml
SARS-CoV-2 RNA; [13]
  SARS-CoV-2 RNA titer, mean: 3.05 log^10 copies/ml
  SARS-CoV-2 RNA titer, mean change from baseline: −1.49 log^10 copies/ml
SARS-CoV-2 RNA; [14]
  SARS-CoV-2 RNA titer, mean: 3.01 log^10 copies/ml
  SARS-CoV-2 RNA titer, mean change from baseline: −1.51 log^10 copies/ml
SARS-CoV-2 RNA; [15]
  SARS-CoV-2 RNA titer, mean: 2.81 log^10 copies/ml
  SARS-CoV-2 RNA titer, mean change from baseline: −1.76 log^10 copies/ml
SARS-CoV-2 RNA; [16]
  SARS-CoV-2 RNA titer, mean: 3.56 log^10 copies/ml
  SARS-CoV-2 RNA titer, mean change from baseline: −1.00 log^10 copies/ml
